Experimental data from patent publication US9006221B2, “Method of modulating ship activity” (H. Lee Moffitt Cancer Center and Reserach Institute, Inc., priority 2008, dated 2015).

Key:
human PBMC = assay: Human one-way MLR with pre-treated PBMC stimulators; format: cell-based; conditions: stimulator PBMC pre-treated 24 hr with 9.4 μM
Excerpt: FACS quantitation of Mac1^+Gr1^+ MIR cells in spleen (A) and lymph node (B) of C57BL/6 mice treated with the SHIP1 inhibitor (Compound), vehicle (Vehicle) or unmanipulated controls (Normal) as indicated. (C) Mixed-Leukocyte-Reactions (MLR) where splenocytes from SHIP1 inhibitor-treated C57BL6 (H2b) mice were used as stimulators for BALB/C (H2d) responders. In parallel splenocytes from either unmanipulated (Normal) or Vehicle treated C57BL6 mice were used as positive controls for the MLR. […] (D) Human PBMC were pre-treated for 24 hr with 3α-aminocholestane (Compound) or vehicle, irradiated and then used as stimulators for untreated PBMC from a different donor in a one-way MLR. […] Absolute peripheral blood granulocyte numbers were determined by an automated blood cell analyzer. […]
Mixed leukocyte reactions (MLR): Following RBC lysis, irradiated (2000 Rads) BL6 splenocytes (stimulators) at 8×10^5 cells/well were combined with BALB/c splenocytes (responders) at 4×10^5 cells/well in a one-way MLR assay. […] Incorporated [3H]thymidine was quantitated using a Packard TopCount NXT. Specific [3H]thymidine incorporation into genomic DNA was calculated as the average of the mean (±SEM) of sextuplicate wells. […]

MG63 cells = assay: MTT cell viability assay, MG63; format: cell-based; conditions: MG63, lacks SHIP1 expression, 36 hours
Procedure: (A) SHIP1 expression in KG1 and MG63 cells was determined by Western blotting (top). Membranes were reprobed with antibodies against b-actin to confirm equal loading (lower panel). One representative blot of 2 individual experiments is shown. (B) KG1 and MG63 cells were plated in duplicate in 96 well plates, and treated for 36 hours with increasing concentrations of the 3α-aminocholestane. Cell viability was assessed by MTT assay. Results represent the mean of three individual experiments. (C) KG1 cells were treated with increasing concentrations of 3α-aminocholestane for 36 hours and hallmarks of apoptosis were identified in cell lysates by Western Blot analysis. […] (D) KG1 cells were treated with increasing concentrations of 3α-aminocholestane, and the percentage of AnnexinV and PI positive cells was determined by FACS analysis. […]
Cell viability assay: Cells were treated in duplicate for 36 hours with increasing concentrations of 3α-aminocholestane or vehicle. […] Formed crystals were dissolved in dimethyl sulfoxide and optical density (OD) was measured at 570 nm. The OD of compound treated cells was divided by the OD of their vehicle control, and the viability was expressed as a percentage of untreated cells. Results are expressed as mean±SEM of three individual experiments.

Q: For CC(C)CCC[C@@H](C)[C@H]1CC[C@H]2[C@@H]3CC[C@H]4C[C@H](N)CC[C@]4(C)[C@H]3CC[C@]12C [NSC23922, (3R,5S,8R,9S,10S,13R,14S,17R)-10,13-dimethyl-17-[(2R)-6-methylheptan-2-yl]-2,3,4,5,6,7,8,9,11,12,14,15,16,17-tetradecahydro-1H-cyclopenta[a]phenanthren-3-amine], which “ability of pre-treated human PBMC to prime allogeneic responses by T cells from an unrelated donor” value (human PBMC) is on record?
A: significantly reduces

Q: What about the “growth and survival of cells (MTT viability)” value (MG63 cells) of the same compound?
A: not in cells that lacks SHIP1 expression
